Consider 3 molecules from patent US20230285317A1, “DILUENTS, STANDARDIZATION AGENTS AND VISCOSITY CONTROL FOR CANNABINOIDS FORMULATIONS AND METHODS THEREOF” (Scientific Holdings, LLC, priority 2022, published 2023).

Data set [1] is described as follows: Long-term solubility and oil stability of cannabinoids in CBC at room temperature. The settings on record: solid cannabinoid in CBC. In kind it is physicochemical. How it is done:
In an example embodiment, the solubility of a number of solid cannabinoid isolates in concentrations of 10-80 percent by mass were evaluated in CBC, a viscous oil at room-temperature. Solubility is assessed at 25 degrees (Celsius), after heating to 35 degrees (Celsius), after heating to 70 degrees (Celsius), and after heating to 100 degrees (Celsius). The solubility of cannabinoids with CBC is then observed at room temperature at various time points after formulation to determine long-term solubility and oil stability.
The samples were then heated at an appropriate temperature for 15 total minutes in a water bath and then if any of the CBD remained solid, the vial would be heated for 15 minutes at the next temperature level. A glass thermometer was used to observe and record the temperature. All eight vials corresponding to the eight concentrations of CBD in CBC became a homogeneous mass upon 6-8 minutes heating at 70 degrees (Celsius).
The samples were then heated at an appropriate temperature for 15 total minutes in a water bath and then if any of the CBG remained solid the vial would be heated for 15 minutes at the next temperature level. A glass thermometer was used to observe and record the temperature. […] The viscosity of the solution containing 50% CBG (Vial 13) and 60% CBG (Vial 14) increased upon standing for 35 to 40 minutes at room temperature.
The samples were then heated at an appropriate temperature for 15 total minutes in a water bath and then if any of the CBDA remained solid the vial would be heated for 15 minutes at the next temperature level. A glass thermometer was used to observe and record the temperature. […] But no solids were evident after 4 minutes at 100 degrees (Celsius). […] Vials 20 through 24, containing […] CBDA respectively in 10 weight percent increments, were homogenous liquids after 7 minutes at 100° C. The samples containing 30% CBDA to 60% CBDA became very viscous but remained liquid after 20 minutes at room temperature.
After day 1, the samples containing 10% to 80% CBD appeared more viscous but remained homogeneous oils. […]

Data set [2] in a line: Solubility of CBG in bisabolol. In kind it is physicochemical. From the text: Roughly 10% of the original amount of CBG seemed to remain crystalline in the sample containing 30% CBG. Approximately 20% the original amount of CBG remained crystalline in the sample containing 40% CBG. Approximately 30% of the original amount of CBG remained solid in the sample containing 50% CBG and approximately 40% of the original mass of CBG remained solid in the solution containing 60% CBG.

On to `C=C(C)[C@@H]1CCC(C)=C[C@H]1c1c(O)cc(CCCCC)c(C(=O)O)c1O` [CBDA, cannabidiolic acid], for which the “concentration up to which CBC gives a flowable and stable oil” value (from here on “concentration up”) in data set [1] is recorded as at most 20%.

Take `C=C(C)[C@@H]1CCC(C)=C[C@H]1c1c(O)cc(CCCCC)cc1O` [CBD, cannabidiol, reference compound]: the “concentration up” value in data set [1] is listed as at most 80%.

For the molecule `CCCCCc1cc(O)c(C/C=C(\C)CCC=C(C)C)c(O)c1` [CBG, cannabigerol], the “concentration up” value in data set [1] is at most 40%. The “concentration of CBG in a flowable and stable oil made with bisabolol” value in data set [2] is reported as “greater than 60%”.
